Laboratory results reported in patent US7968116B2, “Antitumor agent” (Otsuka Pharmaceutical Co., Ltd., priority 2005, dated 2011).
Read-outs that look alike come from different tables or passages of the source.

Test system: HT-29 (human) cancer cell line
Assay: Cell proliferation inhibitory effect (MTT assay) on cultured cancer cell line HT-29
Type: cell-based
Conditions: HT-29 cells; for IC50: incubation at 37° C. for three days, MTT assay, read-out: CPI50 (concentration required for attaining 50% CPI, percent cell proliferation inhibition)
Procedure: A cultured cancer cell line (HT-29 (human)) was inoculated into a 96-well plate (1×10^4 cells/100 μL/well), and subsequently the GlcNAc-cholestanol-compound-containing liposomal formulation or cyclodextrin inclusion complexation prepared in Example 1 was added to the 96-well plate, followed by incubation at 37° C. for three days. Thereafter, the MTT assay was performed, and the number of cells was determined. Percent cell proliferation inhibition was obtained by use of the below-described formula.
Percent cell proliferation inhibition (percent CPI) (%)=(1 −OD of treated cells/OD of non-treated cells)×100 [E1]
OD of treated cells and OD of non-treated cells were measured at 450 nm and 650 nm, respectively (according to the MTT assay).

[1] = Cyclodextrin inclusion complexation

Structure (SMILES) | IC50 [1] | IC50 (Liposomal formulation) | cell proliferation inhibitory effect (in words) (liposomal formulation or cyclodextrin inclusion complexation, three days)
CC(=O)N[C@H]1[C@H](O[C@H]2[C@@H](O)[C@@H](CO)O[C@@H](O[C@H]3CC[C@@]4(C)[C@@H](CC[C@@H]5[C@@H]4CC[C@]4(C)[C@@H]([C@H](C)CCCC(C)C)CC[C@@H]54)C3)[C@@H]2O)O[C@H](CO)[C@@H](O)[C@@H]1O [GlcNAcGalChol, GlcNAcβ1,3Galβ-cholestanol] | 15.9 µM | 10.2 µM | –
CC(C)CCC[C@@H](C)[C@H]1CC[C@H]2[C@@H]3CCC4CC(OC5O[C@H](CO)[C@H](O)[C@H](O)[C@H]5O)CC[C@]4(C)[C@H]3CC[C@]12C (stereo partly drawn) [GalChol, Galp-cholestanol] | 37.4 µM | 12.7 µM | –
CC(=O)N[C@H]1[C@H](O[C@H]2CC[C@@]3(C)[C@@H](CC[C@@H]4[C@@H]3CC[C@]3(C)[C@@H]([C@H](C)CCCC(C)C)CC[C@@H]43)C2)O[C@H](CO)[C@@H](O)[C@@H]1O [GlcNacChol, 5-α-cholestan-3β-yl-2-acetamido-2-deoxy-β-D-glucopyranoside] | 8.8 µM | 10.4 µM | strong cell proliferation inhibitory effect
CC(C)CCC[C@@H](C)[C@H]1CC[C@H]2[C@@H]3CC[C@H]4C[C@@H](O)CC[C@]4(C)[C@H]3CC[C@]12C [Chol, cholestanol] | > 1000 µM | 354 µM | –
